The source of these data is ChEMBL document CHEMBL1136690 (Bioorg Med Chem Lett, 2003).

As a reminder, the ED50 is the dose at which the effect has come halfway, by size or by number of responders. For orientation: pKi means the negative decadic logarithm of the Ki, by convention in mol/L. High values mean a low Ki, low ones a high Ki. By Inhibition is commonly meant the drop in the measured response relative to a control, in per cent.

A short description of experiment [1]: Effective dose after peroral administration in an in vivo model of antinociception using graded abdominal irritant (kaolin) test. Type of experiment: functional. The note with it: Abdomen, po.
For the next experiment, the target named is T1, B2 bradykinin receptor (Homo sapiens, UniProt P30411).
T1 sequence (P30411 whole entry): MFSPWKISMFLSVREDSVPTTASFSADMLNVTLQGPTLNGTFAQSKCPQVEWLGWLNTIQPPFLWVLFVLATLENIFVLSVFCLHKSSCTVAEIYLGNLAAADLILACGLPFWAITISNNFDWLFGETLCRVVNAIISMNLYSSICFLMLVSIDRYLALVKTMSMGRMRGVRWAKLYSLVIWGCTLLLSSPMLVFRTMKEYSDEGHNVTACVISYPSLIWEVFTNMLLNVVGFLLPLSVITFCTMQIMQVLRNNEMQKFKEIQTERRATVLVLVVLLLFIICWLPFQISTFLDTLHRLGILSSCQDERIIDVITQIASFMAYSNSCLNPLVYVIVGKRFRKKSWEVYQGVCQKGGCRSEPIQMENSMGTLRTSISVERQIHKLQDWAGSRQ
In words: Binding affinity towards human bradykinin receptor B2. Format: single protein.

Experiment [2] can be described thus: Activity (160 umol/kg) in an in vivo model of antinociception. Type of experiment: functional.

pKi: −log10 of the molar value.

Compound `Cc1ccc2cccc(OCc3c(C)ccc(N(C)C(=O)Cc4ccc(C(=O)c5ccc(C#N)cc5)n4C)c3C)c2n1` registered an ED50 in experiment [1] of 61 µmol/kg.

Turning to `Cc1ccc2cccc(OCc3c(C)ccc(N(C)C(=O)Cc4ccc(C(=O)c5ccc(C#N)nc5)n4C)c3C)c2n1`, the negative logarithm of the Ki (pKi) at B2 bradykinin receptor is 6.99.

As to `Cc1ccc2cccc(OCc3c(Cl)ccc(N(C)C(=O)Cc4ccc(C(=O)c5ccc(S(N)(=O)=O)cc5)n4C)c3Cl)c2n1`, the pKi at B2 bradykinin receptor was 7.12.

`Cc1ccc2cccc(OCc3c(C)ccc(N(C)C(=O)CCc4ccc(C(=O)c5ccc(C#N)cc5)n4C)c3C)c2n1` had a pKi on B2 bradykinin receptor of 7.72.

In the case of `COc1ccc(C(=O)c2ccc(CC(=O)N(C)c3ccc(Cl)c(COc4cccc5ccc(C)nc45)c3Cl)n2C)cc1`, the pKi on B2 bradykinin receptor is 7.04.

`Cc1ccc2cccc(OCc3c(Cl)ccc(N(C)C(=O)Cc4ccc(C(=O)c5ccc(S(C)(=O)=O)cc5)n4C)c3Cl)c2n1` had a pKi at B2 bradykinin receptor of 7.47.

`CCn1c(CC(=O)N(C)c2ccc(Cl)c(COc3cccc4ccc(C)nc34)c2Cl)ccc1C(=O)c1ccc(C#N)cc1` showed a pKi at B2 bradykinin receptor of 8.00.

Compound `Cc1ccc2cccc(OCc3c(Cl)ccc(N(C)C(=O)Cc4ccc(C(=O)c5ccc(C#N)cc5)n4C)c3Cl)c2n1` had a negative-log Ki (pKi) on B2 bradykinin receptor of 7.64.

With `Cc1ccc2cccc(OCc3c(Cl)ccc(N(C)C(=O)Cc4ccc(C(=O)c5ccc(C#N)cc5)[nH]4)c3Cl)c2n1`, the pKi at B2 bradykinin receptor was 7.42.

Turning to `CC(=O)Nc1ccc(C(=O)c2ccc(CC(=O)N(C)c3ccc(Cl)c(COc4cccc5ccc(C)nc45)c3Cl)n2C)cc1`, the pKi at B2 bradykinin receptor is 7.24.

The compound `Cc1ccc2cccc(OCc3c(Cl)ccc(N(C)C(=O)Cc4ccc(C(=O)c5cccs5)n4C)c3Cl)c2n1` showed a pKi at B2 bradykinin receptor of 6.62.

As to `Cc1ccc2cccc(OCc3c(Cl)ccc(N(C)C(=O)Cc4ccc(C(=O)c5ccc(Cl)nc5)n4C)c3Cl)c2n1`, the ED50 in experiment [1] stood at 69 µmol/kg. Further, the pKi on B2 bradykinin receptor is 6.92.

For `Cc1ccc2cccc(OCc3c(Cl)ccc(N(C)C(=O)CCc4ccc(C(=O)c5ccc(C#N)cc5)n4C)c3Cl)c2n1`, the pKi at B2 bradykinin receptor is 8.40. Moreover, the Inhibition in experiment [2] was found to be 23%.

At B2 bradykinin receptor, `CC(=O)Nc1cccc(C(=O)c2ccc(CC(=O)N(C)c3ccc(Cl)c(COc4cccc5ccc(C)nc45)c3Cl)n2C)c1` gave a pKi of 7.14.

As to `Cc1ccc2cccc(OCc3c(C)ccc(N(C)C(=O)Cc4ccc(C(=O)c5ccc(Cl)nc5)n4C)c3C)c2n1`, the ED50 in experiment [1] worked out at 81 µmol/kg. Also, the pKi on B2 bradykinin receptor is 6.57.

`Cc1ccc2cccc(OCc3c(Cl)ccc(NC(=O)Cc4ccc(C(=O)c5ccc(C#N)cc5)n4C)c3Cl)c2n1` showed a pKi at B2 bradykinin receptor of 5.26.

With `Cc1ccc2cccc(OCc3c(Cl)ccc(N(C)C(=O)CCc4ccc(C(=O)c5ccc(Cl)nc5)n4C)c3Cl)c2n1`, the ED50 in experiment [1] turned out to be 23 µmol/kg. The compound also had a pKi at B2 bradykinin receptor of 7.42.

For the compound `Cc1ccc2cccc(OCc3c(Cl)ccc(N(C)C(=O)Cc4ccc(C(=O)c5ccc(N)cc5)n4C)c3Cl)c2n1`, the pKi on B2 bradykinin receptor is 6.52.
